Data from publication PMC7432509, “Investigating the Product Profiles and Structural Relationships of New Levansucrases with Conventional and Non-Conventional Substrates” (International Journal of Molecular Sciences, 2020).

How the values were obtained:
Format in all cases: biochemical
[1] = target: T1, LS from Novosphingobium aromaticivorans (Novosphingobium aromaticivorans, UniProt Q2G754); assay: HPAEC-PAD, bioconversion of raffinose; details: raffinose as sole fructosyl donor and acceptor (0.8 M in methods, 0.9 M in figure legend)
T1 construct: gene Saro_1879; pET22b(+), E. coli BL21(DE3), HisTrap purified
T1 sequence (Q2G754 1-377): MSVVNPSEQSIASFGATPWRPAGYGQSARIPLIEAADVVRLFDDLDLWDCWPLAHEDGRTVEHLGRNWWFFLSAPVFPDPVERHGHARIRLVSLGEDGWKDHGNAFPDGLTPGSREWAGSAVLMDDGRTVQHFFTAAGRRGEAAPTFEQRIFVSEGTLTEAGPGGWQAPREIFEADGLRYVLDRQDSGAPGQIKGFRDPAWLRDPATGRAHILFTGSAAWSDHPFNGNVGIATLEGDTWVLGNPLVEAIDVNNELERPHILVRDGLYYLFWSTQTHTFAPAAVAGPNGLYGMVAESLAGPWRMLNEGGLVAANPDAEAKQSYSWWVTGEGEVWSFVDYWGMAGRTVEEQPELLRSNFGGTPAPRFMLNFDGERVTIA

[2] = target: T2, LS from Beijerinckia indica subsp. indica (Beijerinckia indica, UniProt B2IF78); assay: HPAEC-PAD, bioconversion of raffinose; details: raffinose as sole fructosyl donor and acceptor (0.8 M in methods, 0.9 M in figure legend)
T2 construct: gene Bind_2021; pET22b(+), E. coli BL21(DE3), HisTrap purified
T2 sequence (B2IF78 29-534): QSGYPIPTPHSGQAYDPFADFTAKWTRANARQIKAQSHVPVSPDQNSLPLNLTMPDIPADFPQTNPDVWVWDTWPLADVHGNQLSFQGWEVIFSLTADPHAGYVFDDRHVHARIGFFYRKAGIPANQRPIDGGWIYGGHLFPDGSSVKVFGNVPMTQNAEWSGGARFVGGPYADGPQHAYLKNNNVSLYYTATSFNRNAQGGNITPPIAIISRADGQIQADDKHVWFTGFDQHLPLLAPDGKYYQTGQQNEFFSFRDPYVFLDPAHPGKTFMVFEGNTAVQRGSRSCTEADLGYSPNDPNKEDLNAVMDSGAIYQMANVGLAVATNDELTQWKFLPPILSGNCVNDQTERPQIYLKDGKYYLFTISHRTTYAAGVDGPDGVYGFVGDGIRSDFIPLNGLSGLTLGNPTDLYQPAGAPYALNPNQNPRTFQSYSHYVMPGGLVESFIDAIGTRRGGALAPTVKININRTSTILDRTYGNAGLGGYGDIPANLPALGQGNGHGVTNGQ

[3] = target: T3, LS from Vibrio natriegens (Vibrio natriegens, UniProt A0AAN0Y6N0); assay: HPAEC-PAD, bioconversion of raffinose; details: raffinose as sole fructosyl donor and acceptor (0.8 M in methods, 0.9 M in figure legend)
T3 construct: gene BA890_19745; pET22b(+), E. coli BL21(DE3), HisTrap purified
T3 sequence (A0AAN0Y6N0 28-523): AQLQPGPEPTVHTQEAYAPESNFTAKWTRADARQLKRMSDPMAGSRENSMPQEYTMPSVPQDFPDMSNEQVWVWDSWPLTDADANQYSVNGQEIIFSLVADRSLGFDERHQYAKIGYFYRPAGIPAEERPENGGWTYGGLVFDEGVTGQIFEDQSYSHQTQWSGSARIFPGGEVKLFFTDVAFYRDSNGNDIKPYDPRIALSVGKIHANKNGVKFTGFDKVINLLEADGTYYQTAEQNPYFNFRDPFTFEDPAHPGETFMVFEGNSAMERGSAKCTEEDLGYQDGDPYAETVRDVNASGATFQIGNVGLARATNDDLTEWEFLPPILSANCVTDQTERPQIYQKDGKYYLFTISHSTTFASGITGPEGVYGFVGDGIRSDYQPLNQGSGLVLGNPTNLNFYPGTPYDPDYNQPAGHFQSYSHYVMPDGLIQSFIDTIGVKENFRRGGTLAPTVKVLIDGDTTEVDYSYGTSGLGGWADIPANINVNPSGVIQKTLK

[4] = target: T4, LS from Gluconobacter oxydans (Gluconobacter oxydans, UniProt Q5FSK0); assay: HPAEC-PAD, bioconversion of raffinose; details: raffinose as sole fructosyl donor and acceptor (0.8 M in methods, 0.9 M in figure legend)
T4 construct: gene GOX0873; pET22b(+), E. coli BL21(DE3), HisTrap purified
T4 sequence (Q5FSK0 1-436): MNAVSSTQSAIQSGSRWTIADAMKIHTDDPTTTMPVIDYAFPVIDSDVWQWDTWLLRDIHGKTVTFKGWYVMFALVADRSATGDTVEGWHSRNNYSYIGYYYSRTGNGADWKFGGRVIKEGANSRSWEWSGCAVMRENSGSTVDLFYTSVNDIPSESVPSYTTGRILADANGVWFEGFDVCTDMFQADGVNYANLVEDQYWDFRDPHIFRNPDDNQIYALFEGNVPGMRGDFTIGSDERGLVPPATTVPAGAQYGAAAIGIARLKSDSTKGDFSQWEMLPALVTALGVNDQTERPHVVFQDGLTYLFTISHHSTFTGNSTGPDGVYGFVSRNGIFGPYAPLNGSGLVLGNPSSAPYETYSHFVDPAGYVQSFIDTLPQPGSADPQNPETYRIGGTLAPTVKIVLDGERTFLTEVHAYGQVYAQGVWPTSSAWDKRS

[5] = target: T5, LS from Paraburkholderia graminis (Paraburkholderia graminis, UniProt B1G3X6); assay: HPAEC-PAD, bioconversion of raffinose; details: raffinose as sole fructosyl donor and acceptor (0.8 M in methods, 0.9 M in figure legend)
T5 construct: gene BgramDRAFT_4066; pET22b(+), E. coli BL21(DE3), HisTrap purified
T5 sequence (B1G3X6 36-529): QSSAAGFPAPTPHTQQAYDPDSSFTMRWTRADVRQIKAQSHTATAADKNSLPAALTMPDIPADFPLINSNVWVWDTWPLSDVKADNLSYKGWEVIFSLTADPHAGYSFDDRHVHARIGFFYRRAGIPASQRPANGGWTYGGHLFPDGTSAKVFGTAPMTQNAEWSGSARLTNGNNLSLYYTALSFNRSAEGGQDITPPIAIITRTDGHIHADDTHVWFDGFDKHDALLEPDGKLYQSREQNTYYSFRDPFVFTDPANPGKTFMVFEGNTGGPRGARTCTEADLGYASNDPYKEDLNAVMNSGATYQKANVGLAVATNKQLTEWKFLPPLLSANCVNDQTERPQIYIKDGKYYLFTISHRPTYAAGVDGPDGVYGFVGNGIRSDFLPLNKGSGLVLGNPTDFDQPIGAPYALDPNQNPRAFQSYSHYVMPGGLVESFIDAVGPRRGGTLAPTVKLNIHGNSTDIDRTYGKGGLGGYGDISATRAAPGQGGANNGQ

[6] = target: T5, LS from Paraburkholderia graminis; assay: HPAEC-PAD time course of sucrose conversion; details: 0.8 M sucrose, 30 °C, 5-7 U/mL; fructosyl donor and acceptor
[7] = target: T4, LS from Gluconobacter oxydans; assay: HPAEC-PAD time course of sucrose conversion; details: 0.8 M sucrose, 30 °C, 5-7 U/mL; fructosyl donor and acceptor

| Structure (SMILES) | HPAEC-PAD, bioconversion of raffinose [1] | HPAEC-PAD, bioconversion of raffinose [2] | HPAEC-PAD, bioconversion of raffinose [3] | HPAEC-PAD, bioconversion of raffinose [4] | HPAEC-PAD, bioconversion of raffinose [5] | HPAEC-PAD time course of sucrose conversion [6] | HPAEC-PAD time course of sucrose conversion [7] |
| --- | --- | --- | --- | --- | --- | --- | --- |
| OC[C@H]1O[C@H](OC[C@H]2O[C@H](O[C@]3(CO)O[C@H](CO)[C@@H](O)[C@@H]3O)[C@H](O)[C@@H](O)[C@@H]2O)[C@H](O)[C@@H](O)[C@H]1O [raffinose] | LS from V. natriegens, N. aromaticivorans, and B. indica subsp. indica preferred raffinose as the substrate | LS from V. natriegens, N. aromaticivorans, and B. indica subsp. indica preferred raffinose as the substrate | LS from V. natriegens, N. aromaticivorans, and B. indica subsp. indica preferred raffinose as the substrate | All LSs were able to produce a few different trisaccharides | LS from P. graminis catalyzed the synthesis of multiple oligosaccharides using raffinose |  |  |
| OC[C@H]1O[C@@](CO)(O[C@H]2O[C@H](CO)[C@@H](O)[C@H](O)[C@H]2O)[C@@H](O)[C@@H]1O [sucrose] |  |  |  |  |  | The LS from P. graminis used the highest amount of sucrose amongst all the enzymes tested | The LSs from G. oxydans and P. graminis almost depleted the sucrose |
